Reference: publication PMC5908301, “Small molecule CXCR4 antagonists block the HIV-1 Nef/CXCR4 axis and selectively initiate the apoptotic program in breast cancer cells” (Oncotarget, 2018)
Entries after “also recorded” stand apart in the source; their conditions may differ. Like-named read-outs stand apart in the source and are kept apart here.

How the values were obtained:
MDA-MB-231 cells [1] = test: Mitochondrial depolarization of MDA-MB-231 breast cancer cells (JC-1 stain); details: for depolarization of MDA-MB-231 cells in dose response (qualitative): Figure 10; for EC50 / inhibition at 100 µM: Homo sapiens; for inhibition at 100 µM: MDA-MB-231, read-out: inhibition (effect) reached in MDA-MB-231 depolarization assay; for depolarization of MDA-MB-231 cells (qualitative): at concentrations below 10 μM; for depolarization/apoptosis of MDA-MB-231 cells (qualitative): up to 100 μM
MDA-MB-231 cells [2] = details: Figure 8B, TUNEL
Method: (D) MDA-MB-231 cells mock treated were analyzed via TUNEL.
(§1) Cells were grown to 80% confluence in 35 mm plates, either untreated or treated with 10 ng/ml of Nef Motif1 or CXCR4 antagonists for 24 hours. The cells were washed twice in ice-cold PBS and then fixed in 4% paraformaldehyde 1 hour. TUNEL assay for apoptosis and microscopy were done as described previously.

HIV-1IIIB = test: MAGI antiviral (entry) assay with HIV-1IIIB in HeLa-derived MAGI-CCR5/CXCR4 cells; assay type: cell-based
Method: MAGI-CCR5/CXCR4 cells are derived from HeLa-CD4-LTR-β-gal cells. The cells have been engineered to express high levels of CD4 and CXCR4 and contain one copy of the HIV-1 LTR promoter driving expression of the β-galactosidase gene upon HIV-1 Tat transactivation. On the day preceding the assay, the cells are plated at 1 × 10^4 well and incubated at 37°C overnight. Total cell and viability quantification is performed using a hemacytometer and trypan blue exclusion.
The virus used for these tests is the CXCR4-tropic strain HIV-1IIIB. […] For each assay, a pre-titered aliquot of virus is removed from the freezer (−80°C) and allowed to thaw slowly to room temperature in a biological safety cabinet.
Compounds are evaluated at one or two concentrations (e.g., for initial screening) or in dose-response at six concentrations (triplicate wells/concentration). On the day of assay setup, compound dilutions are prepared at two-times (2×) the final required concentrations. Media used for plating the cells the day before assay setup is aspirated from the plates and replaced with 50 μL of the 2× compounds, followed by the addition of 50 μL of virus, which dilutes the compounds to the final 1X concentrations. Cell control wells (cells only) and virus control wells (cells plus virus) are included on each assay plate. Identical uninfected assay plates (virus replaced with media) are prepared for parallel cytotoxicity testing.
Once HIV-1 has attached and entered the MAGI-CXCR4 cells, HIV-1 Tat transactivates the LTR dependent β-galactosidase enzyme to express higher than normal levels of β-galactosidase. […] At 48 hours or 6 days post infection, plates are aspirated, and PBS is added to each well. Gal-screen reagent (Tropix, Bedford, MA) is then added per the manufacturer's instructions for chemiluminescent detection of β-galactosidase activity and incubated at room temperature for 90 minutes. The resulting chemiluminescence signal is then read using a Microbeta Trilux luminescence reader (PerkinElmer/Wallac).
Percent inhibition of virus replication and percent cell viability at each concentration are calculated using an in-house computer program. […] Raw data for both antiviral activity and cytotoxicity with analyzed/tabulated data are provided in a printout summarizing the individual compound activity. For dose-response testing, a graphical representation of the data is also provided.

[3] = tested on: Jurkat T-lymphocyte cells; test: Inhibition of Nef M1 peptide-induced mitochondrial depolarization/apoptosis in Jurkat cells (JC-1); assay type: cell-based, human; details: for EC50: JC-1; for protection against M1 (control drugs): data not shown
CXCR4 = biological target: T1, CXCR4 (Homo sapiens, UniProt P61073); test: Inhibition of SDF-1α-mediated calcium flux in CXCR4-expressing CEM cells; assay type: cell-based; details: for IC50: read-out: CEM SDF-1 Ca2+ Flux IC50
T1 construct: CXCR4-expressing CEM cells; endogenous in cells; host or cells: CEM cells
Method: CXCR4- expressing CEM cells were loaded with Fluo-4, washed, and pre- incubated with the indicated concentrations of test compounds for 10 min.

Jurkat cells = test: M1 peptide-induced apoptosis in Jurkat cultures (TUNEL); assay type: cell-based, human
Method: (A) Fluorescent microscopy images of Jurkat cultures stained via TUNEL. (B) TUNEL stained cells were counted and quantified. Fluorescent microscopy images were arranged with Adobe photoshop 6.0 software and analyzed by Image-Pro 6.3 software (Media Cybernetics, Silver Spring, MD).
as §1

[4] = MDA-MB-231, 24 h, read-out: MDA-MB-231 Depolarization EC50
[5] = Human immunodeficiency virus 1, MAGI, read-out: HIV-1IIIB MAGI IC50
[6] = Human immunodeficiency virus 1, MAGI-CCR5/CXCR4 cells, β-galactosidase reporter, read-out: HeLa HIV-1IIIB MAGI IC50
[7] = Homo sapiens, Jurkat, read-out: EC50 against M1-mediated apoptosis in Jurkat cells
[8] = Homo sapiens, Jurkat, 24 h, concentration inhibiting M1-induced mitochondrial depolarization by 50%, 10 ng/mL M1, 24 h, read-out: Jurkat M1 Inhibition EC50
[9] = MDA-MB-231, read-out: EC50 depolarization/apoptosis of MDA-MB-231 cells

T1 sequence (P61073 whole entry): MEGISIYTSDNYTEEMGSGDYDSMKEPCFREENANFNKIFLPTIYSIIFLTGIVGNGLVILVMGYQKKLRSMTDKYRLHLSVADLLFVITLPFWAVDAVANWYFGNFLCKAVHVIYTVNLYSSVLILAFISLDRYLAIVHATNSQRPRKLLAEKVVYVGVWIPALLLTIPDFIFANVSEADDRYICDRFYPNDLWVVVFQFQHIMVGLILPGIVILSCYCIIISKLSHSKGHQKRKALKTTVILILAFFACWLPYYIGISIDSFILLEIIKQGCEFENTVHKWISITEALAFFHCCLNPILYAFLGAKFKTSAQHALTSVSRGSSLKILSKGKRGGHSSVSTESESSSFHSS

EC50 (MDA-MB-231 cells [1]; [4])	IC50 (HIV-1IIIB; [6])	IC50 (CXCR4)	EC50 [3, 8]	Molecule	other results
123 nM	2 nM			c1cc(CN2CCCNCCNCCCNCC2)ccc1CN1CCCNCCNCCCNCC1 [AMD3100, reference compound]	Depolarization (%) (MDA-MB-231 cells [1]; Figure 8A, JC-1 staining): 91%; depolarization of MDA-MB-231 cells in dose response (qualitative) (MDA-MB-231 cells [1]): significant depolarization; Apoptosis (%) (MDA-MB-231 cells [2]): 89.5%; IC50 (HIV-1IIIB; [5]): 2 to 5 nM; EC50 [3, 7]: 473 nM
				Cc1cn([C@H]2C[C@H](N=[N+]=[N-])[C@@H](CO)O2)c(=O)[nH]c1=O [AZT, reference compound]	depolarization of MDA-MB-231 cells in dose response (qualitative) (MDA-MB-231 cells [1]): No depolarization; protection against M1 (control drugs) [3]: did not confer protection
				c1ccc(CNCCCCN(C[C@H]2Cc3ccccc3CN2)[C@H]2CCCc3cccnc32)nc1 [Compound 2]	Apoptosis (%) (MDA-MB-231 cells [2]): 93%
15 nM	790 nM	110 nM	3.5 nM	NCCCCN(C[C@H]1Cc2ccccc2CN1Cc1cnccn1)[C@H]1CCCc2cccnc21 [Compound 3]	inhibition at 100 µM (MDA-MB-231 cells [1]): ≤ 65%
> 100000 nM	3 nM	7700 nM		NCCCCN(C[C@H]1Cc2ccccc2CN1Cc1ccncn1)[C@H]1CCCc2cccnc21 [Compound 4]	inhibition at 100 µM (MDA-MB-231 cells [1]): ~20%; depolarization of MDA-MB-231 cells (qualitative) (MDA-MB-231 cells [1]): failed to depolarize; depolarization/apoptosis of MDA-MB-231 cells (qualitative) (MDA-MB-231 cells [1]): no apoptosis; also recorded: failed to depolarize; depolarization/apoptosis of MDA-MB-231 cells (qualitative) (MDA-MB-231 cells [1]; listed as compound 4): no effect; IC50 (HIV-1IIIB; [5]): < 100 nM; EC50 [3, 7]: 52 nM
0.39 nM	30 nM	190 nM	10 nM	NCCCN(C[C@@H]1CN(Cc2ccccc2)CCN1)[C@H]1CCCc2cccnc21 [Compound 5]	
10000 nM	850 nM	3300 nM		CN(C[C@@H]1CN(Cc2ccccc2)CCN1)[C@H]1CCCc2cccnc21 [Compound 6]	inhibition at 100 µM (MDA-MB-231 cells [1]): ≤ 65%; depolarization of MDA-MB-231 cells (qualitative) (MDA-MB-231 cells [1]): failed to depolarize; IC50 (HIV-1IIIB; [5]): < 100 nM; EC50 [3, 7]: 53 nM
85000 nM	8010 nM	> 50000 nM	12700 nM	CN(C[C@@H]1CN(Cc2ccc(C(F)(F)F)cc2)CCN1)[C@H]1CCCc2cccnc21 [Compound 7]	
81 nM	> 10000 nM	> 10000 nM	12000 nM	c1cnc(NCc2ccc(CNc3ncccn3)cc2)nc1 [MSX-122, reference compound]	EC50 (MDA-MB-231 cells [1]; [9]): < 100 nM; CXCR4 functional response in calcium flux assay (qualitative) (CXCR4): no measurable CXCR4 functional response
				Maraviroc [reference compound]	depolarization of MDA-MB-231 cells in dose response (qualitative) (MDA-MB-231 cells [1]): No depolarization; protection against M1 (control drugs) [3]: did not confer protection
				TNAACAWLEAQ [Compound M1, pro-apoptotic peptide, residues 50–60 of HIV-1 Nef]	apoptosis induction in Jurkat cultures by peptide (Jurkat cells; 10 ng/mL, 24 h, no antagonist): displayed apoptosis

Molecule	EC50 (MDA-MB-231 cells [1]; [4])	IC50 (HIV-1IIIB; [6])	IC50 (CXCR4)	EC50 [3, 8]	other results
NC(=O)NCCCCN(C[C@H]1Cc2ccccc2CN1)[C@H]1CCCc2cccnc21 [Compound 1]	0.8 nM		4 nM	0.3 nM	IC50 (HIV-1IIIB; Human immunodeficiency virus 1, MAGI, read-out: HeLa HIV-1IIIB MAGI IC50): 210 nM
c1ccc(Cc2cn[nH]c2C2CCN(Cc3ccncc3)CC2)cc1 [Compound 8]	28 nM	780 nM		1100 nM	EC50 (MDA-MB-231 cells [1]; [9]): < 100 nM; CXCR4 functional response in calcium flux assay (qualitative) (CXCR4): no measurable CXCR4 functional response
CC1(C)CN2C(CSC(=NC3CCCCC3)NC3CCCCC3)=CSC2=N1 [IT1t, reference compound]	6.25 nM	10 nM			EC50 [3, 7]: < 100 nM; EC50 ([3]; concentration inhibiting M1-induced mitochondrial depolarization by 50%, 10 ng/mL M1, 24 h, listed as It1t, read-out: Jurkat M1 Inhibition EC50): 0.7 nM; EC50 ([3]; concentration inhibiting M1-induced mitochondrial depolarization by 50%, 10 ng/mL M1, 24 h, read-out: Jurkat M1 Inhibition EC50): ≤ 1000 nM; protection from M1-mediated apoptosis (Jurkat cells; prophylactic 50 nM, then M1): complete protection
